Patent publication US8815903B2, “Indole derivative and pharmacologically acceptable salt thereof” (Kissei Pharmaceutical Co., Ltd., priority 2011, dated 2014)

Experiments:
[1] = tested on: Sulprostone-Induced Bladder Contraction; test: Inhibitory effect of compound on sulprostone-induced bladder contraction; assay type: in vivo, rat; details: female SD rats, urethane anesthesia, sulprostone 0.3 mg/kg s.c., test agent 1.0 mg/kg intravenously; for Bladder Contraction Inhibition Rate 15 minutes: 15 minutes from administration; for Bladder Contraction Inhibition Rate 60 minutes: 60 minutes from administration
Text: Inhibitory Effect of Compound on Sulprostone-Induced Bladder Contraction
Female SD rats were used. Under urethane anesthesia (1.25 g/kg, administered subcutaneously), a tracheal cannula (Size 8, HIBIKI) and a femoral vein cannula for administration (23 G needle-equipped PESO) were inserted thereinto. The bladder cannula (PESO) was inserted from the bladder apex. The bladder cannula was connected to a three-way stopcock, and then, one was connected to a pressure transducer and the other was connected to a syringe filled with saline. Saline was injected to the bladder at an injection rate of 3.6 mL/hour and the bladder contraction pressure was recorded at the time of injection with a recorder (RECTI-HORITZ-8K, NEC Corporation). After 10 minutes from stabilization of the bladder contraction pressure during urination, sulprostone was administered subcutaneously (0.3 mg/kg). Then, at the time point when the bladder contraction pressure became constant, a test agent was administered intravenously (1.0 mg/kg). An average bladder contraction pressure during the 10 minute period before administration of sulprostone was taken as a baseline (0%). Further, an average bladder contraction pressure during the 10 minute period directly before administration of the test agent was taken as a maximum bladder contraction pressure (100%). The average bladder contraction pressures were measured during 5 minutes before and after at 15 minutes and 60 minutes from administration of the test agent. The ratio of this measured value to the maximum bladder contraction pressure was calculated by the following equation and taken as an average bladder contraction rate after administration of the test agent: (Average Bladder Contraction Rate after Administration of Test Agent (%))=[(Average Bladder Contraction Pressure after Administration of Test Agent)/(Maximum Bladder Contraction Pressure)]×100 EQUATION 1
In addition, the difference between the maximum bladder contraction rate (100%) and the average bladder contraction rate (%) after administration of the test agent was calculated by the following equation and taken as a bladder contraction inhibition rate of the test agent: (Bladder Contraction Inhibition Rate)=100%−(Average Bladder Contraction Rate after Administration of Test Agent (%)) EQUATION 2

rat EP1 receptor = target: T1, rat EP1 receptor (Rattus norvegicus, UniProt P70597); test: Test for confirmation of EP1 receptor antagonism (inhibition of PGE2-induced increase in intracellular calcium concentration); assay type: cell-based; details: rat EP1 receptor-expressing COS-1 cells; prostaglandin E2 10 nM; fluorescent calcium indicator, FDSS 7000
T1 construct: expressed in transfected cells
T1 sequence (P70597 1-405): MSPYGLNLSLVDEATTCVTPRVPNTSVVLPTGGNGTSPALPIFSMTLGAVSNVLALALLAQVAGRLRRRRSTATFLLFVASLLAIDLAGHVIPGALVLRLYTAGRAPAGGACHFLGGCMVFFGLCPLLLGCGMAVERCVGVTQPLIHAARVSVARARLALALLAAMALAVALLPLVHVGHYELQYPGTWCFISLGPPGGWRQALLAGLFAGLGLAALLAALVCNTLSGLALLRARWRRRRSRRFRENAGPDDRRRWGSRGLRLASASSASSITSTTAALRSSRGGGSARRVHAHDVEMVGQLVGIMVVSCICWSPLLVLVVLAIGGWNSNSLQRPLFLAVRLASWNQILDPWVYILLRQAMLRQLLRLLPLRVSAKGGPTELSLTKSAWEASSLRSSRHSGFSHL
Description: Test for Confirmation of EP1 Receptor Antagonism
(1) Preparation of Rat EP1 Expression Vector
Using Rat Kidney BD Marathon-Ready cDNA (Nippon Becton Dickinson Company, Ltd.) as a template, a forward primer shown in (SEQ ID NO:1), and a reverse primer shown in (SEQ ID NO:2), a first run of PCR was carried out using KOD-Plus-Ver 2.0 (Toyobo Co., Ltd.). Further, using this amplification product as a template, a forward primer shown in (SEQ ID NO:3), and a reverse primer shown in (SEQ ID NO:4), a second run of PCR was carried out in the same manner. The amplification product obtained by the second run of PCR was incorporated into a vector (pcDNA3.1 D/V5-His-TOPO (registered trademark), Invitrogen Japan K. K.). By a conventional method, the vector containing this amplification product was introduced to E. coli (One Shot TOP 10 Competent Cells, Invitrogen Corporation) to transform. This transformed E. coli was cultured in an LB agar medium for one day. After the culture, colonies were selected and cultured in an LB liquid medium containing 50 μg/mL of ampicillin. After the culture, the vector was purified using a QIAprep Spin Miniprep Kit (Qiagen K. K.). The base sequence of the insertion site of this vector (SEQ ID NO:5) was compared with the rat EP1 base sequence (Ptger1) registered as Accession No. NM_013100 in publicly-known database (NCBI), and as a result, they all matched except for a single base. Further, the amino acid sequence translated by the base sequence completely matched the amino acid sequence of the rat EP1 receptor registered as an NCBI Accession No. NP_037232. Therefore, it was confirmed that the cloned gene sequence was a base sequence of the rat EP1 receptor and the obtained amino acid sequence was that of the rat EP1 receptor. The pcDNA3.1 D/V5-His-TOPO (registered trademark) to which the nucleic acid shown in (SEQ ID NO:5) had been inserted was taken as a rat EP1-expressing vector.
(2) Preparation of Rat EP1 Receptor-Expressing Cells
COS-1 cells (Dainippon Sumitomo Pharma Co., Ltd.) were cultured until they reached confluence in an incubator at 37° C. under a 5% CO2 gas condition, using a D-MEM liquid medium (high glucose and L-glutamine contained, Invitrogen Corporation) to which a penicillin-streptomycin solution (Invitrogen Corporation, final concentration: 100 U/mL as benzylpenicillin; 100 μg/mL as streptomycin) as an antibiotic, MEM nonessential amino acids (Invitrogen Corporation, final concentration: 0.1 mM), and fetal calf serum (Sanko Junyaku Co., Ltd., final concentration: 10%) were added.
The cells that had reached confluence were stripped with 0.05% trypsin/0.53 mM EDTA.4Na, and resuspended in a D-MEM liquid medium (high glucose and L-glutamine contained, Invitrogen Corporation) to which an MEM nonessential amino acid (final concentration: 0.1 mM) and fetal calf serum (final concentration: 10%) were added. In each well of a Poly D-lysine-coated 96-well microplate (BD BioCoat (registered trademark), Nippon Becton Dickinson Company, Ltd.), this resuspended cell suspension culture was prepared to be 5×10^4 cells/well in 100 μL of the liquid medium, and 100 μL of the cell suspension was seeded on each well. After seeding, the cells were cultured in an incubator at 37° C. under a 5% CO2 gas condition. At a point when the cells for introduction of a rat EP1-expressing vector were adhered (about 2 hours after seeding), introduction of the rat EP1-expressing vector was carried out in the following order.
For introduction of the rat EP1-expressing vector, Lipofectamine 2000 (Invitrogen Japan K. K.) was used. The rat EP1-expressing vector was diluted with OPTI-MEM (registered trademark) I Reduced-Serum Medium (Invitrogen Japan K. K.) to 200 ng/25 μL/well, and at the same time, Lipofectamine 2000 (Invitrogen Japan K. K.) was also diluted with OPTI-MEM (registered trademark) I Reduced-Serum Medium (Invitrogen Japan K. K.) to 0.5 μL/25 μL/well, followed by incubation at room temperature for 5 minutes. […]

Row | IC50 (rat EP1 receptor) | SMILES | Bladder Contraction Inhibition Rate 15 minutes [1] | Bladder Contraction Inhibition Rate 60 minutes [1]
1 | 15 nM | Cc1ccc2c(Cc3cccc(-c4nnn[nH]4)n3)c(-c3ccccc3)[nH]c2c1 [Example 5-3, 6-methyl-2-phenyl-3-[6-(1H-tetrazol-5-yl)pyridin-2-ylmethyl]-1H-indole] | 78.2% | 75.8%
2 | 20 nM | COc1ccc2c(Cc3cccc(-c4nnn[nH]4)n3)c(C(C)(C)C)[nH]c2c1 [Example 5-7, 2-tert-butyl-6-methoxy-3-[6-(1H-tetrazol-5-yl)pyridin-2-ylmethyl]-1H-indole] | 74.8% | 71.0%
3 | 5.7 nM | COc1ccc2c(Cc3cccc(-c4nnn[nH]4)n3)c(-c3ccoc3)[nH]c2c1 [Example 5-11, 2-furan-3-yl-6-methoxy-3-[6-(1H-tetrazol-5-yl)pyridin-2-ylmethyl]-1H-indole] | 99.0% | 99.8%
4 | 26 nM | COc1ccc2c(Cc3cccc(-c4noc(=O)[nH]4)n3)c(-c3ccccc3)[nH]c2c1 [Example 7-1, 3-[6-(6-Methoxy-2-phenyl-1H-indol-3-ylmethyl)pyridin-2-yl]-4,5-dihydro-1,2,4-oxadiazol-5-one] | 66.3% | 83.0%
5 | 26 nM | COc1ccc2c(Cc3cccc(C(=O)NC#N)n3)c(-c3ccccc3)[nH]c2c1 [Example 10, N-Cyano-6-(6-methoxy-2-phenyl-1H-indol-3-ylmethyl)pyridine-2-carboxamide] | 82.9% | 90.7%
6 | 37 nM | Cc1ccc2c(Cc3cccc(-c4noc(=O)[nH]4)n3)c(-c3ccoc3)[nH]c2c1 [Example 12-11] | 74.9% | 46.7%
7 | 26 nM | O=c1[nH]c(-c2cccc(Cc3c(-c4ccoc4)[nH]c4cc(C5CC5)ccc34)n2)no1 [Example 12-13] | 72.9% | 96.0%
8 | 39 nM | COc1ccc2c(Cc3cccc(-c4noc(=O)[nH]4)n3)c(C3(C)CC3)[nH]c2c1 [Example 12-14] | 80.5% | 59.1%
9 | 11 nM | COc1ccc2c(Cc3cccc(-c4nnn[nH]4)n3)c(C3(C)CC3)[nH]c2c1 [Example 17-11, 6-methoxy-2-(1-methylcyclopropyl)-3-[6-(1H-tetrazol-5-yl)pyridin-2-ylmethyl]-1H-indole] | 92.8% | 100.9%
10 | 14 nM | Cc1ccc2c(Cc3cccc(-c4nnn[nH]4)n3)c(C3(C)CC3)[nH]c2c1 [Example 17-12, 6-methyl-2-(1-methylcyclopropyl)-3-[6-(1H-tetrazol-5-yl)pyridin-2-ylmethyl]-1H-indole] | 81.9% | 74.7%
11 | 27 nM | COc1cc2[nH]c(C3(C)CC3)c(Cc3cccc(-c4nnn[nH]4)n3)c2cc1Cl [Example 20-3, 5-chloro-6-methoxy-2-(1-methylcyclopropyl)-3-[6-(1H-tetrazol-5-yl)pyridin-2-ylmethyl]-1H-indole] | 71.7% | 50.0%
